Series [1] has as its system arrhythmia induced by an intravenous administration of calcium chloride. Put plainly: Antiarrhythmic activity on a model of arrhythmia induced by intravenous calcium chloride (antagonism to calcium) in mice. The note with it: white mice, 20-40 minutes before. It is filed as in vivo. In outline:
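Urethane-anaesthetised (1,200 mg/kg i.p.) white mice of both sexes, 18-25 g, with lead II ECG; 2% CaCl2 infused into the tail vein at 0.01 ml per 2 sec. Doses of CaCl2 producing arrhythmia and heart arrest were determined. Test compounds were given i.p. 20-40 min before infusion.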

A further series in a line: in vivo. The note with it: mouse, in vivo, ip. In outline: (§1)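 Acute toxicity in white mice of 20-25 g, with compounds given intraperitoneally as aqueous solutions or Twin-80 suspensions. Animals observed for 10 days.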
In a further series the test system is white mice. Put plainly: in vivo. Conditions: white mice, intraperitoneal; relative to quinidine. Summed up: as §1
For series [2] the following is noted: currently employed in medicine; cited from earlier work.

These results are taken from US4633014A, “Substituted 3-hydrazinopropionates” (priority 1983, dated 1986).

Each structure is given as a SMILES string.

A word on the LD50: it is the dose expected to kill half of the subjects tested. The low end stands for a more toxic substance, the high end for a less toxic substance. Turning to `C=C[C@H]1C[N@@]2CC[C@H]1C[C@@H]2[C@@H](O)c1ccnc2ccc(OC)cc12` [Quinidine, quinidine, reference compound], in series [1] (intraperitoneal dose 3 mg/kg), the “Dose of calcium chloride causing arrythmia in animals under experiment” value was 126,9 mg/kg and the “Dose of calcium chloride causing death in animals under experiment” value is recorded as 136,0 mg/kg. Further, in series [1] (intraperitoneal dose 10 mg/kg), the “Dose of calcium chloride causing arrythmia in animals under experiment” value is recorded as 120,8 mg/kg and the “Dose of calcium chloride causing death in animals under experiment” value is on record as 133,5 mg/kg. Moreover, the LD50 at 240 h in the series “in vivo” came out at 156 mg/kg. The “Relative toxisity to quinidine” value with white mice is 1. The “acute toxicity (in words, background)” value in series [2] was “high acute toxicity”.
